# Results reported in patent US20110313672A1, “CELLULAR ANTIOXIDANT ACTIVITY (CAA) ASSAY” (CORNELL UNIVERSITY, priority 2007, published 2011).
# Like-named read-outs stand apart in the source and are kept apart here.
# Legend:
# HepG2 cells = assay: Cellular antioxidant activity (CAA) assay: inhibition of peroxyl radical-induced DCFH oxidation; type: cell-based, human; conditions: for CAA value: Example 1, pure compounds, EC50 converted to quercetin equivalents; for CAA: Example 3, Table 7; for EC50: Homo sapiens, mean ± SD, n=3
# [1] = Oxygen radical absorbance capacity (ORAC) assay; conditions: Example 3; flavonoids; mean ± SD, n ≧ 3
# Experimental: The peroxyl radical scavenging efficacy of selected fruits was measured using the ORAC assay (Prior, R. L., et al (2003) J. Agric. Food Chem. 51:3273-3279). Briefly, 20 μL of blank, Trolox standard, or fruit extracts in 75 mM potassium phosphate buffer, pH 7.4 (working buffer), was added to triplicate wells in a black, clear-bottom, 96-well microplate. The triplicate samples were distributed throughout the microplate and were not placed side-by-side, to avoid any effects on readings due to location. In addition, no outside wells were used, as use of those wells results in greater variation. A volume of 200 μL of 0.96 μM fluorescein in working buffer was added to each well and incubated at 37° C. for 20 min, with intermittent shaking, before the addition of 20 μL of freshly prepared 119 mM ABAP in working buffer using a 12-channel pipetter. The microplate was immediately inserted into a Fluoroskan Ascent FL plate reader (ThermoLabsystems) at 37° C. The decay of fluorescence at 538 nm was measured with excitation at 485 nm every 4.5 min for 2.5 h. The areas under the fluorescence versus time curve for the samples minus the area under the curve for the blank were calculated and compared to a standard curve of the areas under the curve for 6.25, 12.5, 25, and 50 μM Trolox standards minus the area under the curve for blank. ORAC values were expressed as mean micromoles of Trolox equivalents (TE) per 100 g of fruit±SD for triplicate data from one experiment.
# ORAC measurements were performed as described herein in Example 2.
compound,measurement,setting,value
"O=c1cc(-c2ccc(O)c(O)c2)oc2cc(O)cc(O)c12 [Luteolin, luteolin]",CAA value,HepG2 cells; PBS wash,22.2 ± 1 µmol QE/100 µmol
same,CAA value,HepG2 cells; no PBS wash,22.6±0.2 μmol QE/100 μmol
same,CAA,HepG2 cells; PBS wash,29.5 ± 2.1 μmol of QE/100 μmol
same,CAA,HepG2 cells; no PBS wash,37.1 ± 0.0 μmol of QE/100 μmol
same,EC50,"HepG2 cells; HepG2, Example 1, Table 1, PBS wash, pure phytochemical compounds, read-out: EC50 for inhibition of peroxyl radical-induced DCFH oxidation",23.1 ± 1 µM
same,EC50,"HepG2 cells; HepG2, Example 1, Table 1, no PBS wash, pure phytochemical compounds, read-out: EC50 for inhibition of peroxyl radical-induced DCFH oxidation",26.1 ± 0.26 µM
same,EC50,"HepG2 cells; HepG2, Example 3, Table 7, PBS wash, flavonoids, read-out: EC50",27.7 ± 2 µM
same,EC50,"HepG2 cells; HepG2, Example 3, Table 7, no PBS wash, flavonoids, read-out: EC50",23.8 µM
same,ORAC,[1],8.55 ± 0.85 cde μmol of TE/μmol
